Source: publication PMC3488005, “A yeast expression system for functional and pharmacological studies of the malaria parasite Ca^2+/H^+ antiporter” (Malaria Journal, 2012)

Columns and labels:
PfCHA = molecular target: T1, PfCHA (Plasmodium falciparum, UniProt C6KSN3); experiment: whole-cell apoaequorin luminescence of cytosolic Ca2+ (AUC […]-16 s), 96-well; assay type: cell-based
T1 construct: gene PF3D7_0603500; full-length ORF (about 1321 bp, approx. 49 kDa) in pGREG505 (GAL1 promoter), expressed in S. cerevisiae vcx1 knock-out (Y03825), vacuole membrane; apoaequorin co-expressed as reporter
T1 sequence (C6KSN3 1-441): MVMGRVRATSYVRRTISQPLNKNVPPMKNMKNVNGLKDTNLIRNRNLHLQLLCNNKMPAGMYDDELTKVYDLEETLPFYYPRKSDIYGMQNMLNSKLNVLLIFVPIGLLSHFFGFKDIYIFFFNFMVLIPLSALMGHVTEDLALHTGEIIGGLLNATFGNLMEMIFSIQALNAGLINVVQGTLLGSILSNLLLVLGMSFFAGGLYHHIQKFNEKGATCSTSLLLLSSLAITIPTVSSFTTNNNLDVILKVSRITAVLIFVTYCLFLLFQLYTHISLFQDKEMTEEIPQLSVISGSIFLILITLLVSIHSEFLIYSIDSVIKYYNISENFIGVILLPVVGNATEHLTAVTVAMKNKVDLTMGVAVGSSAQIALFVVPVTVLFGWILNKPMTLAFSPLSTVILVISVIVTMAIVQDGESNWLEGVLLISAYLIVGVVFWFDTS

Vcx1p (VCX1) = molecular target: T2, Vcx1p (VCX1) (Saccharomyces cerevisiae, UniProt Q99385); experiment: as above; assay type: cell-based; conditions: read-out: concentrations at which their transport was inhibited by 50%
T2 construct: full-length gene (1236 bp) in pGREG505 (GAL1 promoter), re-expressed in S. cerevisiae vcx1 knock-out (Y03825); apoaequorin co-expressed as reporter
T2 sequence (Q99385 1-411): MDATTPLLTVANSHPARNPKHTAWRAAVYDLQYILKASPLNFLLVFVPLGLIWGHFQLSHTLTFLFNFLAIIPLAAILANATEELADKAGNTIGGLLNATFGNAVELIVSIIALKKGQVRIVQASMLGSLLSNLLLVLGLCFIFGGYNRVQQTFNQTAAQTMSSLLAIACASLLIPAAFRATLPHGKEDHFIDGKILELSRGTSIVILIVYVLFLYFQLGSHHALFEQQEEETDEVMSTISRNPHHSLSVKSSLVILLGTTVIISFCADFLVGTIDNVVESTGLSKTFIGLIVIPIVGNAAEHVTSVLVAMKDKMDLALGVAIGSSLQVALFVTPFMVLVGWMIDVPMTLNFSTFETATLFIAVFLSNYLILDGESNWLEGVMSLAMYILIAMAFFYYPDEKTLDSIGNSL

N=C(N)SCCc1ccc(OCc2ccc([N+](=O)[O-])cc2)cc1 [KB-R7943]
IC50 (PfCHA): 17.5 µM | IC50 (Vcx1p (VCX1)): 12.5 µM
